The values that follow come from patent US6570001B1, “Polynucleotides and their use for detecting resistance to streptogramin A or to streptogramin B and related compounds” (priority 1997, dated 2003).

Assay [1] relates to S. aureus recipient strain RN4220 harboring pIP1714. The assay is described as follows: Susceptibility of S. aureus RN4220 transformant harboring pIP1714 (vatC, vgbB). Type of assay: cell-based. As to conditions: RN4220 transformant harboring pIP1714, selected on 10 μg/ml pristinamycin IIA. Here is the method:
The strain BM10711 harbored several plasmids including pIP1714 (5 kb). This plasmid was isolated by electroporation in a S. aureus recipient strain, RN4220. The transformant, harboring pIP1714, was selected on BHIA containing 10 μg/ml pristinamycin IIA.
Susceptibility to antimicrobial agents was determined with a disk diffusion assay and commercially available disks (Diagnostic Pasteur). Additional disks prepared in our laboratory contained streptogramin A (20 μg) or streptogramin B (40 μg).
(§1) Minimal inhibitory concentrations (MICs) of antibiotics were determined by serial twofold dilutions of antibiotics in MHA (Ericson H. M. and S. C. Sherris, ActaPathol. Microbiol. Scand., 1971, Suppl. 217:Section B).

Assay [2] has as its system S. aureus recipient RN4220 transformants carrying recombinant plasmid pIP1717. As to the kind of experiment: MICs by serial twofold dilutions in MHA, S. aureus RN4220 transformants carrying pIP1717 (vgaB). Format: cell-based. The settings on record: S. aureus RN4220 transformants with pIP1717.
Excerpt: First, the 2.4 kb HindIII-Haelll fragment of pIP1675, which contains only 10 nucleotide from vatB, was inserted into plasmid pOX300, and the recombinant plasmid, pIP1717 (FIG. 1B), was introduced by electroporation into the S. aureus recipient, RN4220 (Kreiswirth et al., 1983). Plasmid pOX300, also named pOX7, (Dyke and Curnock, 1989), is a hybrid of pUC18 and pEl94ts and replicates in E. coli where it confers resistance to ampicillin and to erythromycin, and in S. aureus where only resistance to erythromycin is expressed. The S. aureus transformants selected on 10 μg/ml erythromycin were resistant to streptogramin A and related compounds (PIIA MICs=8-16 μg/ml). Thus, the 2.4-kb HindIII-HaeIII insert of pIP1717 (FIG. 1B) probably carried a streptogramin A resistance gene and was sequenced. The nucleotide (nucleotide) sequence of this fragment was determined by the dideoxy method (Sanger et al., 1977) with the reagents and the procedure recommended by the suppliers of the T^7 sequencing kit (Pharmacia International). Arrows indicate the direction and extent of each dideoxy-sequencing reaction. (FIG. 1B).
as §1

Assay [3] relates to Staphylococcal strains resistant to streptogramins. As to conditions: staphylococci resistant to synergistic mixtures of A and B compounds / to A compounds (Allignet et al., 1996); cited from earlier work.

As for streptogramin A, the resistance phenotype entry in assay [1] is “conferred resistances”; in assay [2], “resistant”. Take `CC1=C\[C@@H](O)CC(=O)Cc2nc(co2)C(=O)N2CCC=C2C(=O)O[C@H](C(C)C)[C@H](C)/C=C/C(=O)NC\C=C\1` [PIIA, pristinamycin IIA]: in assay [3], the MIC is at least 8 µg/mL.

streptogramin B: the resistance phenotype result in assay [1] is “conferred resistances”.

A word on the MIC: it is the least concentration at which growth counts as inhibited.
